Results published in patent US20090299044A1 (priority 2006, published 2009).
Bridge positions count the residues as written; N and C are the ends. Square brackets hold non-standard residues; d marks the D form. Peptide text beside a SMILES is read from it. 1Nal = N[C@@H](Cc1cccc2ccccc12)C(=O)O

Experiments:
human Kv1.3 (CHO) = molecular target: T1, human Kv1.3 (CHO) (Homo sapiens, UniProt P22001); experiment: cell-based
T1 construct: expressed in transfected cells; host or cells: CHO

human Kv1.1 (HEK293) = molecular target: T2, human Kv1.1 (HEK293) (Homo sapiens, UniProt Q09470); experiment: cell-based
T2 construct: expressed in transfected cells; host or cells: HEK293
T2 sequence (Q09470 whole entry): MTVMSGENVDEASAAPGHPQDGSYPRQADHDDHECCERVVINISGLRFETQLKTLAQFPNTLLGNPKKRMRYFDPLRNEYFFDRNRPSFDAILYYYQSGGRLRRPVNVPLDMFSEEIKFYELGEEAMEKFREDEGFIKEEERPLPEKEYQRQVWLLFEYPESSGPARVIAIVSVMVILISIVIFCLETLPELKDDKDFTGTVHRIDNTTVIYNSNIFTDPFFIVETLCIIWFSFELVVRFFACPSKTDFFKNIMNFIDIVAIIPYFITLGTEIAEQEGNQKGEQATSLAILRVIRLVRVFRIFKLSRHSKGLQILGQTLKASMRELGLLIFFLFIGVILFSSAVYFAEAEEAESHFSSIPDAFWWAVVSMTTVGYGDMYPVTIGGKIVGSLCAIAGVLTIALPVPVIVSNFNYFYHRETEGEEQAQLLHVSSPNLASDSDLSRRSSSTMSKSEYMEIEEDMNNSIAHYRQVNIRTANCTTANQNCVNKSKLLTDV

T1 sequence (P22001 whole entry): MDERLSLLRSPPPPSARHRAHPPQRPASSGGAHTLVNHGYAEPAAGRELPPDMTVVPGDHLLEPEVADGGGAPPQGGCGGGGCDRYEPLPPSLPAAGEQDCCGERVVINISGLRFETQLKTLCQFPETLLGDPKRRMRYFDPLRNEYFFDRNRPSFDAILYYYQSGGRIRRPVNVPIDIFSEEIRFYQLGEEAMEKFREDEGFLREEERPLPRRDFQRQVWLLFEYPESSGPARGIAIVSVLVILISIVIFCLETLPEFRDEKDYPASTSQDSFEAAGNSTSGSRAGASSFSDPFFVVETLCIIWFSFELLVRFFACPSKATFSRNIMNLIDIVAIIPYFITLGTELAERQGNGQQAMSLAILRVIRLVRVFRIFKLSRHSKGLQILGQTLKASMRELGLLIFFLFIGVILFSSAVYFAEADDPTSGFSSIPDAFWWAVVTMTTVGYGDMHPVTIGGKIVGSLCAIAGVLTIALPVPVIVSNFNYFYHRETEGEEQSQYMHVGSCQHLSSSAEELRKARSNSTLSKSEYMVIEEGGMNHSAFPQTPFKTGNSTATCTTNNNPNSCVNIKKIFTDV

**Q.** Which results are given for `CC[C@H](C)[C@@H]1NC(=O)[C@H](CCCCN)NC(=O)[C@@H](NC(=O)[C@H](CCCCN)NC(=O)[C@@H](NC(=O)[C@H](CC(N)=O)NC(=O)[C@@H](NC(=O)[C@@H](NC(=O)[C@@H](NC(=O)CN)C(C)C)[C@@H](C)CC)[C@@H](C)CC)C(C)C)CSSC[C@@H]2NC(=O)[C@H](CCCCN)NC(=O)CNC(=O)[C@H](Cc3ccccc3)NC(=O)[C@H](CCCNC(=N)N)NC(=O)[C@H](CCSC)NC(=O)CNC(=O)[C@H](C)NC(=O)[C@H](CCCCN)NC(=O)[C@H](CCCCN)NC(=O)[C@@H]3CSSC[C@@H](C(=O)N[C@H](C(=O)N4CCC[C@H]4C(=O)N[C@@H](CCCCN)C(=O)O)[C@@H](C)O)NC(=O)[C@H](Cc4c[nH]cn4)NC(=O)[C@H](CSSC[C@H](NC(=O)[C@H](CCC(N)=O)NC(=O)[C@H](CCCNC(=N)N)NC(=O)[C@H](CO)NC1=O)C(=O)N[C@@H](CC(C)C)C(=O)N[C@@H](CCC(=O)O)C(=O)N1CCC[C@H]1C(=O)N3)NC(=O)[C@H](CCC(=O)O)NC(=O)CNC(=O)[C@H](CC(N)=O)NC(=O)[C@H](CCSC)NC2=O` [K32E] (H-GVIINVKCKISRQCLEPCKKAGMRFGKCMNGECHCTPK-OH; disulfide 8-28, 14-33, 18-35)?
**A.** IC50 (human Kv1.3 (CHO)): 0.0156 nM; IC50 (human Kv1.1 (HEK293)): 0.0173 nM

**Q.** For `CC[C@H](C)[C@@H]1NC(=O)[C@H](CCCCN)NC(=O)[C@@H](NC(=O)[C@H](CCCCN)NC(=O)[C@@H](NC(=O)[C@H](CC(N)=O)NC(=O)[C@@H](NC(=O)[C@@H](NC(=O)[C@@H](NC(=O)CN)C(C)C)[C@@H](C)CC)[C@@H](C)CC)C(C)C)CSSC[C@@H]2NC(=O)[C@H](CCCCN)NC(=O)CNC(=O)[C@H](Cc3ccccc3)NC(=O)[C@H](CCCNC(=N)N)NC(=O)[C@H](CCSC)NC(=O)CNC(=O)[C@H](C)NC(=O)[C@H](CCCCN)NC(=O)[C@H](CCCCN)NC(=O)[C@@H]3CSSC[C@@H](C(=O)N[C@H](C(=O)N4CCC[C@H]4C(=O)N[C@@H](CCCCN)C(=O)O)[C@@H](C)O)NC(=O)[C@H](Cc4c[nH]cn4)NC(=O)[C@H](CSSC[C@H](NC(=O)[C@H](CCC(N)=O)NC(=O)[C@H](CCCNC(=N)N)NC(=O)[C@H](CO)NC1=O)C(=O)N[C@@H](CC(C)C)C(=O)N[C@@H](CCC(=O)O)C(=O)N1CCC[C@H]1C(=O)N3)NC(=O)[C@H](CCCCN)NC(=O)[C@H](CCC(=O)O)NC(=O)[C@H](CC(N)=O)NC(=O)[C@H](CCSC)NC2=O` [G31E] (H-GVIINVKCKISRQCLEPCKKAGMRFGKCMNEKCHCTPK-OH; disulfide 8-28, 14-33, 18-35), which IC50 (human Kv1.3 (CHO)) is on record?
**A.** The IC50 was 0.012 nM.

**Q.** What about the IC50 (human Kv1.1 (HEK293)) of the same compound?
**A.** The IC50 was 0.00237 nM.

**Q.** What does the source list for `CC[C@H](C)[C@@H]1NC(=O)[C@H](CCCCN)NC(=O)[C@@H](NC(=O)[C@H](CCCCN)NC(=O)[C@@H](NC(=O)[C@H](CC(N)=O)NC(=O)[C@@H](NC(=O)[C@@H](NC(=O)[C@H](CCC(=O)O)NC(=O)CN)[C@@H](C)CC)[C@@H](C)CC)C(C)C)CSSC[C@@H]2NC(=O)[C@H](CCCCN)NC(=O)CNC(=O)[C@H](Cc3ccccc3)NC(=O)[C@H](CCCNC(=N)N)NC(=O)[C@H](CCSC)NC(=O)CNC(=O)[C@H](C)NC(=O)[C@H](CCCCN)NC(=O)[C@H](CCCCN)NC(=O)[C@@H]3CSSC[C@@H](C(=O)N[C@H](C(=O)N4CCC[C@H]4C(=O)N[C@@H](CCCCN)C(=O)O)[C@@H](C)O)NC(=O)[C@H](Cc4c[nH]cn4)NC(=O)[C@H](CSSC[C@H](NC(=O)[C@H](CCC(N)=O)NC(=O)[C@H](CCCNC(=N)N)NC(=O)[C@H](CO)NC1=O)C(=O)N[C@@H](CC(C)C)C(=O)N[C@@H](CCC(=O)O)C(=O)N1CCC[C@H]1C(=O)N3)NC(=O)[C@H](CCCCN)NC(=O)CNC(=O)[C@H](CC(N)=O)NC(=O)[C@H](CCSC)NC2=O` [V2E] (H-GEIINVKCKISRQCLEPCKKAGMRFGKCMNGKCHCTPK-OH; disulfide 8-28, 14-33, 18-35)?
**A.** IC50 (human Kv1.3 (CHO)): 0.0362 nM; IC50 (human Kv1.1 (HEK293)): 0.035 nM

**Q.** `CC[C@H](C)[C@@H]1NC(=O)[C@H](CCCCN)NC(=O)[C@@H](NC(=O)[C@H](CCCCN)NC(=O)[C@@H](NC(=O)[C@H](CC(N)=O)NC(=O)[C@@H](NC(=O)[C@@H](NC(=O)[C@@H](NC(=O)CN)C(C)C)[C@@H](C)CC)[C@@H](C)CC)C(C)C)CSSC[C@@H]2NC(=O)[C@H](CCCCN)NC(=O)CNC(=O)[C@H](Cc3ccccc3)NC(=O)[C@H](CCCNC(=N)N)NC(=O)[C@H](CCSC)NC(=O)CNC(=O)[C@H](C)NC(=O)[C@H](CCCCN)NC(=O)[C@H](CCCCN)NC(=O)[C@@H]3CSSC[C@@H](C(=O)N[C@H](C(=O)N4CCC[C@H]4C(=O)N[C@@H](CCCCN)C(=O)O)[C@@H](C)O)NC(=O)[C@H](Cc4c[nH]cn4)NC(=O)[C@H](CSSC[C@H](NC(=O)[C@H](CCC(N)=O)NC(=O)[C@H](CCCNC(=N)N)NC(=O)[C@H](CO)NC1=O)C(=O)N[C@@H](Cc1cccc4ccccc14)C(=O)N[C@@H](CCC(=O)O)C(=O)N1CCC[C@H]1C(=O)N3)NC(=O)[C@H](CCCCN)NC(=O)CNC(=O)[C@H](CC(N)=O)NC(=O)[C@H](CCSC)NC2=O` [L15Nal] (H-GVIINVKCKISRQC[1Nal]EPCKKAGMRFGKCMNGKCHCTPK-OH; disulfide 8-28, 14-33, 18-35) was tested. Which IC50 (human Kv1.3 (CHO)) did it give?
**A.** Its IC50 is 0.0178 nM.

**Q.** And the IC50 (human Kv1.1 (HEK293))?
**A.** The IC50 was under 0.00152 nM.

**Q.** How did the IC50 (human Kv1.3 (CHO)) turn out when `CC[C@H](C)[C@@H]1NC(=O)[C@H](CCCCN)NC(=O)[C@@H](NC(=O)[C@H](CCCCN)NC(=O)[C@@H](NC(=O)[C@H](CC(N)=O)NC(=O)[C@@H](NC(=O)[C@@H](NC(=O)[C@@H](NC(=O)[C@@H](N)CCC(=O)O)C(C)C)[C@@H](C)CC)[C@@H](C)CC)C(C)C)CSSC[C@@H]2NC(=O)[C@H](CCCCN)NC(=O)CNC(=O)[C@H](Cc3ccccc3)NC(=O)[C@H](CCCNC(=N)N)NC(=O)[C@H](CCSC)NC(=O)CNC(=O)[C@H](C)NC(=O)[C@H](CCCCN)NC(=O)[C@H](CCCCN)NC(=O)[C@@H]3CSSC[C@@H](C(=O)N[C@H](C(=O)N4CCC[C@H]4C(=O)N[C@@H](CCCCN)C(=O)O)[C@@H](C)O)NC(=O)[C@H](Cc4c[nH]cn4)NC(=O)[C@H](CSSC[C@H](NC(=O)[C@H](CCC(N)=O)NC(=O)[C@H](CCCNC(=N)N)NC(=O)[C@H](CO)NC1=O)C(=O)N[C@@H](CC(C)C)C(=O)N[C@@H](CCC(=O)O)C(=O)N1CCC[C@H]1C(=O)N3)NC(=O)[C@H](CCCCN)NC(=O)CNC(=O)[C@H](CC(N)=O)NC(=O)[C@H](CCSC)NC2=O` [G1E] (H-EVIINVKCKISRQCLEPCKKAGMRFGKCMNGKCHCTPK-OH; disulfide 8-28, 14-33, 18-35) was run?
**A.** Its IC50 is 0.186 nM.

**Q.** What about the IC50 (human Kv1.1 (HEK293)) of the same compound?
**A.** The IC50 was 0.051 nM.

**Q.** For `CC[C@H](C)[C@@H]1NC(=O)[C@H](CCCCN)NC(=O)[C@@H](NC(=O)[C@H](CCCCN)NC(=O)[C@@H](NC(=O)[C@H](CC(N)=O)NC(=O)[C@@H](NC(=O)[C@@H](NC(=O)[C@@H](NC(=O)CN)C(C)C)[C@@H](C)CC)[C@@H](C)CC)C(C)C)CSSC[C@@H]2NC(=O)[C@H](CCCCN)NC(=O)CNC(=O)[C@H](CCCNC(=N)N)NC(=O)[C@H](CCCNC(=N)N)NC(=O)[C@H](CCSC)NC(=O)CNC(=O)[C@H](C)NC(=O)[C@H](CCCCN)NC(=O)[C@H](CCCCN)NC(=O)[C@@H]3CSSC[C@@H](C(=O)N[C@H](C(=O)N4CCC[C@H]4C(=O)N[C@@H](CCCCN)C(=O)O)[C@@H](C)O)NC(=O)[C@H](Cc4c[nH]cn4)NC(=O)[C@H](CSSC[C@H](NC(=O)[C@H](CCC(N)=O)NC(=O)[C@H](CCCNC(=N)N)NC(=O)[C@H](CO)NC1=O)C(=O)N[C@@H](CC(C)C)C(=O)N[C@@H](CCC(=O)O)C(=O)N1CCC[C@H]1C(=O)N3)NC(=O)[C@H](CCCCN)NC(=O)CNC(=O)[C@H](CC(N)=O)NC(=O)[C@H](CCSC)NC2=O` [F25R] (H-GVIINVKCKISRQCLEPCKKAGMRRGKCMNGKCHCTPK-OH; disulfide 8-28, 14-33, 18-35), which IC50 (human Kv1.3 (CHO)) is on record?
**A.** Its IC50 is over 3.33 nM.

**Q.** What about the IC50 (human Kv1.1 (HEK293)) of the same compound?
**A.** Its IC50 is 0.817 nM.

**Q.** `CC[C@H](C)[C@@H]1NC(=O)[C@H](CCCCN)NC(=O)[C@@H](NC(=O)[C@H](CCCCN)NC(=O)[C@@H](NC(=O)[C@H](CC(N)=O)NC(=O)[C@@H](NC(=O)[C@@H](NC(=O)[C@@H](NC(=O)CN)C(C)C)[C@@H](C)CC)[C@@H](C)CC)C(C)C)CSSC[C@@H]2NC(=O)[C@H](CCCCN)NC(=O)CNC(=O)[C@H](Cc3ccccc3)NC(=O)[C@H](CCCNC(=N)N)NC(=O)[C@H](CCSC)NC(=O)CNC(=O)[C@H](CCC(=O)O)NC(=O)[C@H](CCCCN)NC(=O)[C@H](CCCCN)NC(=O)[C@@H]3CSSC[C@@H](C(=O)N[C@H](C(=O)N4CCC[C@H]4C(=O)N[C@@H](CCCCN)C(=O)O)[C@@H](C)O)NC(=O)[C@H](Cc4c[nH]cn4)NC(=O)[C@H](CSSC[C@H](NC(=O)[C@H](CCC(N)=O)NC(=O)[C@H](CCCNC(=N)N)NC(=O)[C@H](CO)NC1=O)C(=O)N[C@@H](CC(C)C)C(=O)N[C@@H](CCC(=O)O)C(=O)N1CCC[C@H]1C(=O)N3)NC(=O)[C@H](CCCCN)NC(=O)CNC(=O)[C@H](CC(N)=O)NC(=O)[C@H](CCSC)NC2=O` [A21E] (H-GVIINVKCKISRQCLEPCKKEGMRFGKCMNGKCHCTPK-OH; disulfide 8-28, 14-33, 18-35) was tested. Which IC50 (human Kv1.3 (CHO)) did it give?
**A.** The IC50 was 0.00737 nM.

**Q.** And the IC50 (human Kv1.1 (HEK293))?
**A.** The IC50 was under 0.00152 nM.

**Q.** Which IC50 (human Kv1.3 (CHO)) does the source give for `CC[C@H](C)[C@@H]1NC(=O)[C@H](CCCCN)NC(=O)[C@@H](NC(=O)[C@H](CCCCN)NC(=O)[C@@H](NC(=O)[C@H](CC(N)=O)NC(=O)[C@@H](NC(=O)[C@@H](NC(=O)[C@@H](NC(=O)CN)C(C)C)[C@@H](C)CC)[C@@H](C)CC)C(C)C)CSSC[C@@H]2NC(=O)[C@H](CCCCN)NC(=O)CNC(=O)[C@H](Cc3ccccc3)NC(=O)[C@H](CCCNC(=N)N)NC(=O)[C@H](CCSC)NC(=O)[C@H](C)NC(=O)[C@H](C)NC(=O)[C@H](CCCCN)NC(=O)[C@H](CCCCN)NC(=O)[C@@H]3CSSC[C@@H](C(=O)N[C@H](C(=O)N4CCC[C@H]4C(=O)N[C@@H](CCCCN)C(=O)O)[C@@H](C)O)NC(=O)[C@H](Cc4c[nH]cn4)NC(=O)[C@H](CSSC[C@H](NC(=O)[C@H](CCC(N)=O)NC(=O)[C@H](CCCNC(=N)N)NC(=O)[C@H](CO)NC1=O)C(=O)N[C@@H](CC(C)C)C(=O)N[C@@H](CCC(=O)O)C(=O)N1CCC[C@H]1C(=O)N3)NC(=O)[C@H](CCCCN)NC(=O)CNC(=O)[C@H](CC(N)=O)NC(=O)[C@H](CCSC)NC2=O` [G22A] (H-GVIINVKCKISRQCLEPCKKAAMRFGKCMNGKCHCTPK-OH; disulfide 8-28, 14-33, 18-35) here?
**A.** Its IC50 is over 3 nM.

**Q.** What about the IC50 (human Kv1.1 (HEK293)) of the same compound?
**A.** Its IC50 is over 3 nM.
